Active and inactive are the calls of the source. No cut-off for these calls is given here. Starred links: 1 amine or outer side, 2 acyl side, 3 side chain; linkers in the order of their positions; H or OH if unused. Non-standard residues stand in square brackets, D forms with d. Residues, ends and D or L forms follow the SMILES beside them. *: point of attachment. X1 = CCC(=O)C[C@@H](O)C[C@@H](C)C[C@H](N[*:1])C(=O)[*:2]; Hexenoyl(2E,4S-Me) = CC[C@H](C)/C=C/C(=O)*; Leu(3R-OH) = CC(C)[C@@H](O)[C@H](N)C(=O)O; NH((S)CH(Me)CH2NMe2) = C[C@@H](CN(C)C)N*; Pro(4S-Me) = C[C@@H]1CN[C@H](C(=O)O)C1; NH(1-CH2NMe2-cBu) = CN(C)CC1(N*)CCC1; Benzoyl(4-F) = O=C(c1ccc(F)cc1)*; hCha = N[C@@H](CCC1CCCCC1)C(=O)O; Aib = CC(C)(N)C(=O)O; βAla = NCCC(=O)O

The values below come from ChEMBL document CHEMBL6109069 (J Med Chem, 2025).

Data set [1] can be described thus: Inhibition of Escherichia coli ATP synthase assessed as inhibition constant.
Data set [2] can be described thus: Reduction in respiration rate in human Fibroblast cells assessed as decrease in coupling efficiency at 50 nM incubated up to 80 mins. The format is functional. Set-up: scale not given: the % may be the effect or the level left. To be noted: 1.333 h.
The subject of data set [3] is Trypanosoma cruzi. The data set is described as follows: Antitrypanosomal activity against Trypanosoma cruzi Tulahuen C4 incubated for 4 days. The class given is functional, organism-based. To be noted: Tulahuen C4, 96 h.
Data set [4] deals with Trypanosoma brucei. The experiment in a line: Induction of mitochondrial uncoupling activity in Trypanosoma brucei assessed as increase in oxygen consumption rate by measuring fluorescence intensity at 25 nM measured up to 80 mins by O2k-type oxygraph analysis. The class given is functional, organism-based.
For data set [5], the system named is Mitochondrial membrane. The experiment in a line: Induction of mitochondrial membrane depolarization in bovine heart assessed as change in fluorescence intensity at 100 to 200 nM by safranin O staining based eclipse fluorescence spectrophotometric analysis. Particulars: Bos taurus, dose 100-200 nM. The class given is cell membranes.
In data set [6] the test system is Mitochondrial membrane. The data set is described as follows: Induction of mitochondrial membrane depolarization in bovine heart assessed as change in fluorescence intensity at 25 nM by safranin O staining based eclipse fluorescence spectrophotometric analysis. The format is cell membranes. To be noted: Bos taurus.
The subject of data set [7] is Trypanosoma brucei rhodesiense. The data set is described as follows: Antitrypanosomal activity against Trypanosoma brucei rhodesiense STIB 900. The class given is functional, organism-based.
In data set [8] the test system is Lipid bilayer. The experiment in a line: Disruption of membrane integrity in bacterial cell membrane mimic POPC/POPG LUVs assessed as HTPS leakage at 5 uM measured after 1 mins.
In data set [9] the test system is Lipid bilayer. The data set is described as follows: Disruption of membrane integrity in bacterial cell membrane mimic POPC/POPG LUVs assessed as calcein leakage at 1.3 uM measured for 1 mins by fluorescence spectroscopy analysis.
Data set [10] has as its system Plasmodium falciparum. The data set is described as follows: Antiplasmodial activity against Plasmodium falciparum NF54 incubated for 48 hrs. The format is functional, organism-based. Particulars: NF54, 48 h.
For data set [11], the system named is Mitochondrial membrane. The data set is described as follows: Induction of mitochondrial membrane potential in bovine heart assessed as change in fluorescence intensity at 200 nM by safranin O staining based eclipse fluorescence spectrophotometric analysis. The class given is cell membranes. Particulars: Bos taurus.
Data set [12] deals with Fibroblast. The experiment in a line: Induction of mitochondrial uncoupling activity in human Fibroblast cells assessed as increase in oxygen consumption rate by measuring fluorescence intensity at 25 nM measured up to 80 mins by O2k-type oxygraph analysis. The class given is functional, cell-based.
The nature of data set [13]: Inhibition of Bovine heart ATP synthase assessed as inhibition constant by Michaelis-Menten plot analysis. Further details: species or system Bos taurus. To be noted: read-out: Ki.
Data set [14] concerns Leishmania donovani. The data set is described as follows: Antitrypanosomal activity against Leishmania donovani MHOM/ET/67/L82 incubated for 72 hrs by resazurin staining based analysis. The class given is functional, organism-based. Particulars: MHOM/ET/67/L82, 72 h.
Data set [15] relates to Trypanosoma brucei. The data set is described as follows: Induction of mitochondrial uncoupling activity in Trypanosoma brucei assessed as increase in oxygen consumption rate by measuring fluorescence intensity by O2k-type oxygraph analysis. The class given is functional, organism-based.
Data set [16] relates to Fibroblast. The experiment in a line: Inhibition of ATP synthase in human Fibroblast cells assessed as decrease in oxygen consumption at 50 nM by OROBOROS instrument based analysis. The class given is cell-based.
In data set [17] the test system is Fibroblast. The data set is described as follows: Induction of mitochondrial uncoupling activity in human Fibroblast cells assessed as increase in oxygen consumption rate by measuring fluorescence intensity by O2k-type oxygraph analysis. The class given is functional, cell-based.
The test system of data set [18] is Lipid bilayer. The experiment in a line: Disruption of membrane integrity in bacterial cell membrane mimic POPC/POPG LUVs assessed as HTPS leakage at 5 uM measured for 1 mins by fluorescence spectroscopy analysis.
A short description of data set [19]: Inhibition of yeast ATP synthase assessed as inhibition constant by Michaelis-Menten plot analysis. Set-up: species or system Saccharomyces cerevisiae.
Data set [20] is described as follows: Cytotoxicity against rat L6 cells assessed as cell viability. The format is toxicity, cell-based.
Data set [21] has as its system Mitochondrial membrane. The data set is described as follows: Induction of mitochondrial membrane hyperpolarization in bovine heart assessed as change in fluorescence intensity at 25 nM by safranin O staining based eclipse fluorescence spectrophotometric analysis. The class given is cell membranes. Particulars: Bos taurus.
Data set [22] can be described thus: Toxicity in ip dosed mouse assessed as lethal dose. To be noted: in vivo. The format is organism-based.
For data set [23], the system named is Lipid bilayer. The experiment in a line: Disruption of membrane integrity in bacterial cell membrane mimic POPC/POPG LUVs assessed as HTPS leakage at 1 uM measured for 1 mins by fluorescence spectroscopy analysis.
Data set [24] is described as follows: Toxicity in po dosed mouse assessed as lethal dose. Particulars: in vivo. The format is organism-based.
Data set [25] in a line: Cytotoxicity against rat L6 cells. The class given is toxicity, cell-based.
Data set [26] has as its system Trypanosoma brucei rhodesiense. The experiment in a line: Antitrypanosomal activity against Trypanosoma brucei rhodesiense STIB 900 incubated for 72 hrs by resazurin staining based analysis. Particulars: STIB 900, 72 h. The format is functional, organism-based.
Data set [27] in a line: Cytotoxicity against rat L6 cells assessed as cell viability incubated for 72 hrs by CCK-8 assay. On the technique in general: Tetrazolium assays rely on reduction of a dye to a coloured formazan, in cell work by metabolically active cells.
Data set [28] deals with Fibroblast. The data set is described as follows: Reduction in respiration rate in human Fibroblast cells assessed as decrease in coupling efficiency at > 200 nM incubated up to 60 mins. The class given is functional, cell-based.
The species named for data set [29] is Bos taurus. The experiment in a line: Potency index, ratio of Leucinostatin A Ki to test compound Ki for inhibition of Bovine heart ATP synthase.

For `CC(C)C[C@H](NC(=O)[C@H](CCC1CCCCC1)NC(=O)[C@@H]1CCCN1C(=O)c1ccc(F)cc1)C(=O)NC(C)(C)C(=O)N[C@@H](CC(C)C)C(=O)N[C@@H](CC(C)C)C(=O)NC(C)(C)C(=O)NC(C)(C)C(=O)NCCC(=O)NC1(CN(C)C)CCC1` ({Benzoyl(4-F)}-P[hCha]L[Aib]LL[Aib][Aib][βAla]-{NH(1-CH2NMe2-cBu)}), the values for the Ki in data set [1] and in data set [13] were approximately 260 nM and 265 nM, respectively. Moreover, the Activity in data set [2] is approximately 3%. The IC50 – broadly, the midpoint of a concentration-inhibition curve – was determined as 114 nM in [3], 0.39 nM in [7], 5.4 nM in data set [10] and 4.9 nM in data set [14]. Moreover, the outcome in [4] and in [12] was inactive. Also, the outcome in [5], in data set [6], in data set [8], in data set [9] and in data set [11] was Active.

Consider `CCC(=O)C[C@@H](O)C[C@@H](C)C[C@H](NC(=O)[C@@H]1C[C@H](C)CN1C(=O)/C=C/[C@@H](C)CC)C(=O)N[C@H](C(=O)NC(C)(C)C(=O)N[C@@H](CC(C)C)C(=O)N[C@@H](CC(C)C)C(=O)NC(C)(C)C(=O)NC(C)(C)C(=O)NCCC(=O)N[C@@H](C)CN(C)C)[C@H](O)C(C)C` ({Hexenoyl(2E,4S-Me)}-[Pro(4S-Me)][X1][Leu(3R-OH)][Aib]LL[Aib][Aib][βAla]-{NH((S)CH(Me)CH2NMe2)}), for which the result in data set [15], in data set [17], in data set [21] and in data set [9] was Active. For the same compound, the inhibition result in data set [16] is “Active”. Besides, the values for the Ki in [1], in data set [19] and in data set [13] were more than 1000 nM, approximately 30 nM and 80 nM, respectively. For the same compound, in [2], the Activity was approximately 60%. Further, the IC50 in data set [3] was 23 nM; in [20], 259 nM; in [7], 0.25 nM; in data set [10], 0.61 nM; in data set [25] it was 259 nM; in data set [14] it was 1.1 nM. In addition, the outcome in data set [18] and in [23] was inactive. Also, the LD50 – broadly, the dose expected to kill half of the subjects tested – turned out to be 1.8 mg/kg in data set [22] and 5.4 mg/kg in data set [24].

Turning to `CC[C@H](C)/C=C/C(=O)N1C[C@@H](C)C[C@H]1C(=O)N[C@@H](CCC1CCCCC1)C(=O)N[C@H](C(=O)NC(C)(C)C(=O)N[C@@H](CC(C)C)C(=O)N[C@@H](CC(C)C)C(=O)NC(C)(C)C(=O)NC(C)(C)C(=O)NCCC(=O)N[C@@H](C)CN(C)C)[C@H](O)C(C)C` ({Hexenoyl(2E,4S-Me)}-[Pro(4S-Me)][hCha][Leu(3R-OH)][Aib]LL[Aib][Aib][βAla]-{NH((S)CH(Me)CH2NMe2)}), the IC50 was found to be 0.34 nM in data set [26], 275 nM in data set [3], 0.47 nM in data set [10] and 1.2 nM in data set [14]. Moreover, the IC50 at 72 h in [27] is 232 nM. For the same compound, the result in [28] was Active. Further, the Ratio Ki in [29] was found to be 4. In [13], the Ki (in general, a dissociation constant, usually derived from enzyme kinetics or from competition with a known ligand) is 22 nM.
